# Measured values taken from PMC10384657 (Virus Research, 2023).
# Legend:
# [1] = test system: MPER25c peptide (S2 membrane proximal region derived); format: binding, SARS-CoV-2
# [2] = test system: Vero E6 cells; details: 72 h
# [3] = test system: Vero E6/TMPRSS2; details: 72 h
# [4] = test system: SARS-CoV-2
SMILES,binding to immobilized MPER25c (in words) [1],ka [1] [M⁻¹ s⁻¹],CC50 (mean ± SD) [2] [µM],CC50 (mean ± SD) [3] [µM],fold reduction of the expected IC50 value of PN19 produced by MPER25 [4] [fold],fold lower binding activity to immobilized MPER25c than PN19 [1]
CC[C@H](C)[C@H](NC(=O)[C@H](CCC(N)=O)NC(=O)[C@H](CC(C)C)NC(=O)[C@H](C)NC(=O)[C@H](C)NC(=O)CNC(=O)[C@H](C)NC(=O)CNC(=O)[C@H](Cc1ccccc1)NC(C)=O)C(=O)N1CCC[C@H]1C(=O)N[C@@H](Cc1ccccc1)C(=O)N[C@@H](C)C(=O)N[C@@H](CCSC)C(=O)N[C@@H](CCC(N)=O)C(=O)N[C@@H](CCSC)C(=O)N[C@@H](C)C(=O)N[C@@H](Cc1ccc(O)cc1)C(=O)N[C@@H](CCCNC(=N)N)C(=O)N[C@@H](Cc1ccccc1)C(N)=O [PN19],binds to immobilized MPER25c,410.9,> 100,> 100,48,–
CC[C@H](C)[C@H](NC(=O)[C@H](CCC(N)=O)NC(=O)[C@H](CC(C)C)NC(=O)[C@H](C)NC(=O)[C@H](C)NC(=O)CNC(=O)[C@H](C)NC(=O)CNC(=O)[C@H](Cc1ccccc1)NC(C)=O)C(=O)N1CCC[C@H]1C(=O)N[C@@H](Cc1ccccc1)C(=O)N[C@@H](C)C(=O)N[C@@H](CCSC)C(=O)N[C@@H](CCC(N)=O)C(=O)N[C@@H](CCSC)C(=O)N[C@@H](C)C(=O)N[C@@H](C)C(=O)N[C@@H](CCCNC(=N)N)C(=O)N[C@@H](Cc1ccccc1)C(N)=O [PN19Y→A904],–,–,> 100,–,–,2-3 fold
